Laboratory results: US6323219A, “Methods for treating immunomediated inflammatory disorders” (Ortho-McNeil Pharmaceutical, Inc., priority 1999, dated 2001)
Read-outs that look alike come from different tables or passages of the source.

Assays:
Human Skin Chymase [1] = molecular target: T1, Human Skin Chymase (Homo sapiens, UniProt P23946); test: Chymase IC50 Method; format: biochemical; conditions: 37° C., 10.0 nM enzyme, 500 μM substrate
T1 construct: purchased Cortex Biochem CP1129; host or cells: human skin
T1 sequence (P23946 22-247): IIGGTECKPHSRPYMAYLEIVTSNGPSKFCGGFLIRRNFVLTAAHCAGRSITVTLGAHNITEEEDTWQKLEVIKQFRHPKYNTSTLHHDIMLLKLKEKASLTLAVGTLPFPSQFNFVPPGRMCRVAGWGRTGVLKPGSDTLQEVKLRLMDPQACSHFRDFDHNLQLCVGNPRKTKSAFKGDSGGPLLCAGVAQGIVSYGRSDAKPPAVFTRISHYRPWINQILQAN
Method: (§1) The enzyme reaction is started by the addition of enzyme ([E]: 1.0 nM human Lung Tryptase; Cortex Biochem CP3033). Data is collected over a period of 30 min. and the initial rate of substrate hydrolysis (Vo (mOD/min)) is calculated. Inhibition is calculated by comparing to wells containing no inhibitor (vehicle) and IC50 s are determined using a four parameter fit logistics model. […] The enzyme reaction is started by the addition of enzyme ([E]: 10.0 nM Human Skin Chymase; Cortex Biochem CPl 129). Data is collected over a period of 30 min. and the initial rate of substrate hydrolysis (Vo (mOD/min)) is calculated. Inhibition is calculated by comparing to wells containing no inhibitor (vehicle) and IC50 s are determined using a four parameter fit logistics model. Chymase 10 μM Screen Method: The optical density at 405 nm due to hydrolysis of synthetic chromogenic peptide substrates ([S]: 500 μM Suc-Ala-Ala-Pro-Phe-pNA; Bachem L-1400) is measured in the presence and absence of inhibitor compounds of formula (I) with a microplate reader at room temperature. The enzyme reaction is started by the addition of enzyme ([E]: 5.0 nM Human Skin Chymase; Cortex Biochem CP1129), and 3 hours following that addition data is collected. After subtracting background (no enzyme addition), inhibition is calculated by comparing to wells containing no inhibitor (vehicle).

Human Skin Chymase [2] = molecular target: T1, Human Skin Chymase; test: Chymase 10 μM Screen Method; format: biochemical; conditions: read-out: Chymase % Inhibition (10 μM)
Method: The enzyme reaction is started by the addition of enzyme ([E]: 1.0 nM human Lung Tryptase; Cortex Biochem CP3033). Data is collected over a period of 30 min. and the initial rate of substrate hydrolysis (Vo (mOD/min)) is calculated. Inhibition is calculated by comparing to wells containing no inhibitor (vehicle) and IC50 s are determined using a four parameter fit logistics model. […] Data is collected over a period of 30 min. and the initial rate of substrate hydrolysis (Vo (mOD/min)) is calculated. Inhibition is calculated by comparing to wells containing no inhibitor (vehicle) and IC50 s are determined using a four parameter fit logistics model. […] The enzyme reaction is started by the addition of enzyme ([E]: 5.0 nM Human Skin Chymase; Cortex Biochem CP1129), and 3 hours following that addition data is collected. After subtracting background (no enzyme addition), inhibition is calculated by comparing to wells containing no inhibitor (vehicle).

[3] = Bioavailability, ex vivo thrombin inhibition assay after i.v. and p.o. dosing; format: in vivo; conditions: rat, plasma, po, male rats
Method: Bioavailability was determined by an ex vivo thrombin inhibition assay which incorporated hydrolysis rates from drug administered both i.v. and p.o. In this assay male rats were prepared as described above with a Teflon tube implanted in their femoral artery. Blood was drawn from the animals 15 min before dosing with the inhibitor (0.25 mL blood was drawn into a syringe containing 0.025 mL of Sigma sodium citrate) and set aside for analysis. The test compound was dispersed in water (0.3-3.0 mg/mL final conc.) and delivered to the animals (0.25 mL) either i.v. or p.o.. […] This sample was analyzed for thrombin inhibition using the chromogenic assay, described below.
The rate of increase in absorbance at 405 nm of synthetic peptides (50 μM Spectozyme® TH (H-D-HHT-Ala-Arg-pNA-2AcOH), American Diagnostica) was measured in the presence of plasma with a microplate reader (Molecular Devices) at 37° C. using an aqueous buffer (10 mM Tris, 10 mM Hepes, 150 mM NaCI, 0.1% PEG; pH 7.4). […] Datum were collected over a 30 min period and the initial rate of substrate hydrolysis (VO (mOD/min)) was calculated with an analysis program (Softmax, Molecular Devices). […]
The percentage of thrombin inhibition in the treated animals was calculated by comparing the V0 prior to treatment with the V0 obtained from samples collected after treatment. […]

in vivo = test: in vivo; parameters: species or system male rats (Long Evans); conditions: rat, iv
Method: Since the compounds of the formula (l) are also potent thrombin inhibitors (see U.S. Pat. No. 5,523,308), an ex vivo thrombin assay was conducted to determine the duration of action of the compounds of Formula I. For this i.v. assay male rats (Long Evans, 350-500 g) were implanted with a teflon cannulae via the femoral artery while under anesthesia (pentobarbital i.p., 35 mg/kg). After surgery, the animals were individually housed in standard cages, fed with rat chow (Hanlan, #8604) and continuously infused with physiological saline to maintain arterial patency, (0.5 mL/h, intra arterial) using a spring-shielded swiveling tether connected to an infusion system. The animals were allowed to recover for at least 24 h after the surgical procedure.
A sample of blood was drawn from the animals 15 min before dosing with the inhibitor (0.25 mL blood is drawn into a syringe containing 0.025 mL of Sigma sodium citrate). The test compound was dispersed in water and delivered to the animal (0.25 mL) via the femoral vein. The inhibitor was given at a concentration (mg/mL) which produced 80% inhibition of VO in a plasma sample at 5 min after infusion. Blood was drawn from the arterial line (blood:sodium citrate, 0.25/0.025 mL ) at regular intervals after dosing (5, 10, 15, 30, 60 and 120 min) and placed in a centrifuge tube. A plasma sample was obtained by centrifuging the blood at 10,000 rpm for 5 min. This sample is analyzed for thrombin inhibition using the chromogenic assay, described below.
The rate of increase in absorbance at 405 nm of synthetic peptides (50 μM Spectozyme® TH (H-D-HHT-Ala-Arg-pNA-2AcOH), American Diagnostica) is measured in the presence of plasma with a microplate reader (Molecular Devices) at 37° C. using an aqueous buffer (10 mM Tris, 10 mM Hepes, 150 mM NaCl, 0.1% PEG; pH 7.4). The buffer was added to the plasma samples (1:1) dilution prior to delivery to the microplate (1:5 and 1:50 for final plasma dilutions of 1:10 and 1:100 respectively) followed by the enzyme (1 nM human α thrombin). Datum was collected over a 30 min period and the initial rate of substrate hydrolysis (V0 (mOD/min)) was calculated with an analysis program (Softmax, Molecular Devices).
The time to half plasma elimination (t 1/2) was calculated from the slope of VO vs. time, using the following equation: […]. These datum are presented in Table L. In Table L, the compound # corresponds to the compound number described in U.S. Pat. No. 5,523,308.

human Lung Tryptase = test: Tryptase IC50 Method; format: biochemical; conditions: 37° C., 1.0 nM enzyme, 500 μM substrate
Method: as §1

SMILES | IC50 (Human Skin Chymase [1]) [nM] | inhibition at 10 µM (Human Skin Chymase [2]) [%] | bioavailability [3] [%] | half-life (in vivo) [min] | inhibition at 10 µM (Human Skin Chymase [2]; 10 μM, room temperature, 5.0 nM enzyme, 3 hours) [%] | IC50 (human Lung Tryptase) [nM]
CN[C@H](Cc1ccccc1)C(=O)N1CCC[C@H]1C(=O)N[C@@H](Cc1ccccc1)C(=O)c1nc2ccccc2s1 [Compound 38] | 2700 | 94 | – | – | – | –
CN[C@H](Cc1ccccc1)C(=O)N1CCC[C@H]1C(=O)N[C@@H](CCCNC(=N)N)C(=O)c1nc2ccccc2s1 [Compound 1] | – | – | 1.2 | 19 | 2 | 7.5
